Measurements: patent US9265253B2, “Use of macrocyclic picolinamides as fungicides” (DOW AGROSCIENCES LLC, priority 2013, dated 2016)
Read-outs that look alike come from different tables or passages of the source.

Assays:
[1] = system: Mycosphaerella graminicola; Anamorph: Septoria tritici; assay: Leaf Blotch of Wheat (SEPTTR) disease control; format: in vivo; details: Zymoseptoria tritici; for pest or weed control at 100 ppm: rate 100 ppm; for pest or weed control at 121.5 g/ha: rate 121.5 g/H
Procedure, shortened: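 Wheat seedlings (Yuma, first leaf emerged) were sprayed to run-off with compound in acetone/water (1:9, 110 ppm Triton X-100) and inoculated with Septoria tritici spores before or after treatment. Disease severity (0–100%) was scored once untreated first leaves were fully symptomatic; control was calculated relative to untreated plants.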

[2] = system: Puccinia triticina; Synonym: Puccinia recondite f. Sp. Tritici; assay: Wheat Brown Rust (PUCCRT) disease control; format: in vivo; details: Puccinia triticina, topical; for pest or weed control at 100 ppm: rate 100 ppm; for pest or weed control at 121.5 g/ha: rate 121.5 g/H
Procedure, shortened: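 Brown rust on first-leaf Yuma wheat: spore inoculation before or after spray application (acetone/Triton X-100 solution, or EC with Trycol in track spray), overnight 100% RH at 22 °C, disease developed at 24 °C. Severity scored 0–100% and converted to percent control against untreated.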

[3] = 24 h, 1 Day Protectant, read-out: SEPTTR 1 DP disease control
[4] = 72 h, 3 Day Curative, read-out: SEPTTR 3 DC disease control
[5] = 24 h, 1 Day Protectant, read-out: PUCCRT 1 DP disease control
[6] = 72 h, 3 Day Curative, read-out: PUCCRT 3 DC disease control

| Structure (SMILES) | pest or weed control at 100 ppm [1, 3] [%] | pest or weed control at 100 ppm [1, 4] [%] | pest or weed control at 100 ppm [2, 5] [%] | pest or weed control at 121.5 g/ha [1, 3] [%] | pest or weed control at 121.5 g/ha [1, 4] [%] | pest or weed control at 121.5 g/ha [2, 5] [%] | pest or weed control at 100 ppm [2, 6] [%] | pest or weed control at 121.5 g/ha [2, 6] [%] |
| --- | --- | --- | --- | --- | --- | --- | --- | --- |
| COc1ccc(C[C@H]2CCC[C@H](NC(=O)c3nccc(OC)c3O)C(=O)O[C@@H](C)[C@@H]2OC(=O)C2CCCC2)cc1 [Compound F28] | 80 to 100 | 0 to 80 | 80 to 100 | – | – | – | – | – |
| COc1ccnc(C(=O)N[C@H]2CCC[C@H](CCC(C)C)[C@@H](Oc3ccccc3)[C@H](C)OC2=O)c1OCOC(=O)C(C)C [Compound F147] | 80 to 100 | 80 to 100 | 80 to 100 | 80 to 100 | 80 to 100 | 80 to 100 | 80 to 100 | 0 to 80 |
| COc1ccnc(C(=O)N[C@H]2CCC[C@H](Cc3ccc(C)cc3)[C@@H](OCCCC(F)(F)F)[C@H](C)OC2=O)c1OCOC(C)=O [Compound F139] | 80 to 100 | 80 to 100 | 80 to 100 | 80 to 100 | 80 to 100 | 80 to 100 | 80 to 100 | 0 to 80 |
| COc1ccnc(C(=O)N[C@H]2CCC[C@H](CC3CCCCC3)[C@@H](OCC(C)C)[C@H](C)OC2=O)c1O [Compound F25] | 80 to 100 | 0 to 80 | 80 to 100 | – | – | – | – | – |
| COc1ccnc(C(=O)N[C@H]2CCC[C@H](CCC(C)C)[C@@H](OCCCC(F)(F)F)[C@H](C)OC2=O)c1OC(C)=O [Compound F65] | 80 to 100 | 80 to 100 | 80 to 100 | 80 to 100 | 80 to 100 | 80 to 100 | 80 to 100 | 0 to 80 |
| COc1ccc(C[C@H]2CCC[C@H](NC(=O)c3nccc(OC)c3O)C(=O)O[C@@H](C)[C@@H]2OCC(C)C)cc1 [Compound F32] | 80 to 100 | 80 to 100 | 80 to 100 | – | – | – | 0 to 80 | – |
| COc1ccnc(C(=O)N[C@H]2CCC[C@H](C)[C@@H](OCc3ccccc3)[C@H](C)OC2=O)c1OC(C)=O [Compound F77] | 80 to 100 | 80 to 100 | 80 to 100 | 80 to 100 | 80 to 100 | 80 to 100 | 80 to 100 | 80 to 100 |
| COc1ccnc(C(=O)N[C@H]2CCC[C@H](CCC(C)C)[C@@H](OCC(C)C)[C@H](C)OC2=O)c1OCOC(=O)C(C)C [Compound F148] | 80 to 100 | 80 to 100 | 80 to 100 | 80 to 100 | 80 to 100 | 80 to 100 | 80 to 100 | 80 to 100 |
| COc1ccnc(C(=O)N[C@H]2CCC[C@@H]3CCO[C@H]3[C@H](C)OC2=O)c1OC(C)=O [Compound F85] | – | – | – | 0 to 80 | – | 80 to 100 | – | 80 to 100 |
| COc1ccc(C[C@H]2CCC[C@H](NC(=O)c3nccc(OC)c3O)C(=O)O[C@@H](C)[C@@H]2OCC2CC2)cc1 [Compound F30] | 80 to 100 | 80 to 100 | 80 to 100 | – | – | – | 80 to 100 | – |
| COc1ccc(C[C@H]2CCC[C@H](NC(=O)c3nccc(OC)c3OC(C)=O)C(=O)O[C@@H](C)[C@@H]2OCC2CC2)cc1 [Compound F72] | 80 to 100 | 80 to 100 | 80 to 100 | 80 to 100 | 80 to 100 | 80 to 100 | 80 to 100 | 0 to 80 |
| CC[C@H]1CCC[C@H](NC(=O)c2nccc(OC)c2OCOC(C)=O)C(=O)O[C@@H](C)[C@@H]1OCC(C)C [Compound F133] | 80 to 100 | 80 to 100 | 80 to 100 | 80 to 100 | 80 to 100 | 80 to 100 | 80 to 100 | 80 to 100 |
| COc1ccnc(C(=O)N[C@H]2CCC[C@H](C)[C@@H](OCc3ccccc3)[C@H](C)OC2=O)c1OCOC(C)=O [Compound F125] | 80 to 100 | 80 to 100 | 80 to 100 | 80 to 100 | 80 to 100 | 80 to 100 | 80 to 100 | 80 to 100 |
| COc1ccnc(C(=O)N[C@H]2CCC[C@H](Cc3ccccc3)[C@@H](OC3CCCC3)[C@H](C)OC2=O)c1O [Compound F22] | 80 to 100 | 80 to 100 | 80 to 100 | – | – | – | 80 to 100 | – |
| COc1ccnc(C(=O)N[C@H]2CCC[C@H](Cc3ccc(F)cc3)[C@@H](OC(=O)C3CCCC3)[C@H](C)OC2=O)c1OCOC(C)=O [Compound F104] | 80 to 100 | 80 to 100 | 80 to 100 | 80 to 100 | 80 to 100 | 80 to 100 | 80 to 100 | 0 to 80 |
| CCCO[C@@H]1[C@@H](CCC(C)C)CCC[C@H](NC(=O)c2nccc(OC)c2O)C(=O)O[C@H]1C [Compound F4] | 80 to 100 | 80 to 100 | 80 to 100 | – | – | – | 80 to 100 | – |
| COc1ccnc(C(=O)N[C@H]2CCC[C@H](CCOc3ccccc3)[C@@H](OCC3CC3)[C@H](C)OC2=O)c1O [Compound F57] | 80 to 100 | 0 to 80 | 80 to 100 | – | – | – | 80 to 100 | – |
| CCOCC(=O)OCOc1c(OC)ccnc1C(=O)N[C@H]1CCC[C@H](CC2CCCC2)[C@@H](Oc2ccccc2)[C@H](C)OC1=O [Compound F176] | 80 to 100 | 80 to 100 | 80 to 100 | 80 to 100 | 80 to 100 | 80 to 100 | 80 to 100 | 0 to 80 |
| C=CCO[C@@H]1[C@@H](Cc2ccc(F)cc2)CCC[C@H](NC(=O)c2nccc(OC)c2O)C(=O)O[C@H]1C [Compound F12] | 80 to 100 | 80 to 100 | 0 to 80 | – | – | – | 80 to 100 | – |
| COc1ccnc(C(=O)N[C@H]2CCC[C@H](CCC(C)C)[C@@H](OCCCC(F)(F)F)[C@H](C)OC2=O)c1O [Compound F5] | 80 to 100 | 80 to 100 | 80 to 100 | – | – | – | 0 to 80 | – |
| COc1ccnc(C(=O)N[C@H]2CCC[C@H](CC3CCCC3)[C@@H](Oc3ccccc3)[C@H](C)OC2=O)c1OCOC(C)=O [Compound F115] | 80 to 100 | 80 to 100 | 80 to 100 | 80 to 100 | 80 to 100 | 80 to 100 | 80 to 100 | 0 to 80 |
| COc1ccnc(C(=O)N[C@H]2CCC[C@H](CCC(C)C)[C@@H](OC)[C@H](C)OC2=O)c1OC(C)=O [Compound F66] | 80 to 100 | 80 to 100 | 80 to 100 | 80 to 100 | 0 to 80 | 0 to 80 | 80 to 100 | 0 to 80 |
| COc1ccnc(C(=O)N[C@H]2CCC[C@H](CC3CCCC3)[C@@H](OCC3CC3)[C@H](C)OC2=O)c1OC(C)=O [Compound F73] | 80 to 100 | 80 to 100 | 80 to 100 | 80 to 100 | 80 to 100 | 80 to 100 | 80 to 100 | 80 to 100 |
| COc1ccnc(C(=O)N[C@H]2CCC[C@H](CCC(C)C)[C@@H](OCC(C)C)[C@H](C)OC2=O)c1O [Compound F2] | 80 to 100 | 80 to 100 | 80 to 100 | – | – | – | 0 to 80 | – |
| COCCO[C@@H]1[C@@H](Cc2ccccc2)CCC[C@H](NC(=O)c2nccc(OC)c2OCOC(C)=O)C(=O)O[C@H]1C [Compound F112] | – | – | – | 80 to 100 | 80 to 100 | 80 to 100 | – | 80 to 100 |
